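Tested at 5 concentrations; 48 h exposure; 96-well plates; endpoints linearly interpolated, else capped at highest concentration. GI50 is the concentration that inhibits growth by half.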 Active and inactive are the calls of the source. Cut-off read from the data, not from the text of the source: active = GI50 up to about 1.1 µM and inactive = higher.
Key:
Assay in all cases: growth of human tumour cells (NCI), 48 h
NCI/ADR-RES = system: NCI/ADR-RES
TK-10 = system: TK-10
NCI-H226 = system: NCI-H226
SK-OV-3 = system: SK-OV-3
IGROV-1 = system: IGROV-1
KM12 = system: KM12
K562 = system: K562
CCRF-CEM = system: CCRF-CEM
OVCAR-5 = system: OVCAR-5
OVCAR-8 = system: OVCAR-8
HCT-116 = system: HCT-116
Malme-3M = system: Malme-3M
U-251 = system: U-251
NCI-H522 = system: NCI-H522
HOP-62 = system: HOP-62
SN12C = system: SN12C
RPMI-8226 = system: RPMI-8226
UACC-62 = system: UACC-62
SK-MEL-5 = system: SK-MEL-5
BT-549 = system: BT-549
OVCAR-3 = system: OVCAR-3
786-0 = system: 786-0
MDA-N = system: MDA-N
SK-MEL-2 = system: SK-MEL-2
OVCAR-4 = system: OVCAR-4
LOX IMVI = system: LOX IMVI
PC-3 = system: PC-3
SR = system: SR
RXF 393 = system: RXF 393
SK-MEL-28 = system: SK-MEL-28
CAKI-1 = system: CAKI-1
SF-295 = system: SF-295
UACC-257 = system: UACC-257
MOLT-4 = system: MOLT-4
Hs-578T = system: Hs-578T
A549 = system: A549
NCI-H23 = system: NCI-H23
HCC 2998 = system: HCC 2998
EKVX = system: EKVX
SW-620 = system: SW-620
A498 = system: A498
COLO 205 = system: COLO 205
MDA-MB-435 = system: MDA-MB-435
M14 = system: M14
HCT-15 = system: HCT-15
SNB-75 = system: SNB-75
DU-145 = system: DU-145
SF-539 = system: SF-539
MDA-MB-231 = system: MDA-MB-231
HT-29 = system: HT-29
SF-268 = system: SF-268
SNB-19 = system: SNB-19
HOP-92 = system: HOP-92
NCI-H460 = system: NCI-H460
HL-60 = system: HL-60
T47D = system: T47D
ACHN = system: ACHN

Structure (SMILES): N=c1c2c(=S)n(-c3ccccc3)c(=S)n(-c3ccccc3)c2nc(SCCN2CCCC2)n1-c1ccccc1
- GI50 (NCI/ADR-RES): 6.44 µM (inactive)
- GI50 (TK-10): 1.59 µM (inactive)
- GI50 (NCI-H226): 7.59 µM (inactive)
- GI50 (SK-OV-3): 12.6 µM (inactive)
- GI50 (IGROV-1): 1.77 µM (inactive)
- GI50 (KM12): 5.2 µM (inactive)
- GI50 (K562): 0.762 µM (active)
- GI50 (CCRF-CEM): 0.347 µM (active)
- GI50 (OVCAR-5): 17.5 µM (inactive)
- GI50 (OVCAR-8): 2.01 µM (inactive)
- GI50 (HCT-116): 2.09 µM (inactive)
- GI50 (Malme-3M): 2.17 µM (inactive)
- GI50 (U-251): 2.52 µM (inactive)
- GI50 (NCI-H522): 1.72 µM (inactive)
- GI50 (HOP-62): 3.4 µM (inactive)
- GI50 (SN12C): 1.86 µM (inactive)
- GI50 (RPMI-8226): 0.341 µM (active)
- GI50 (UACC-62): 1.63 µM (inactive)
- GI50 (SK-MEL-5): 3.27 µM (inactive)
- GI50 (BT-549): 1.92 µM (inactive)
- GI50 (OVCAR-3): 1.68 µM (inactive)
- GI50 (786-0): 0.622 µM (active)
- GI50 (MDA-N): 2.05 µM (inactive)
- GI50 (SK-MEL-2): 5.94 µM (inactive)
- GI50 (OVCAR-4): 3 µM (inactive)
- GI50 (LOX IMVI): 1.63 µM (inactive)
- GI50 (PC-3): 1.75 µM (inactive)
- GI50 (SR): 0.136 µM (active)
- GI50 (RXF 393): 1.41 µM (inactive)
- GI50 (SK-MEL-28): 3.69 µM (inactive)
- GI50 (CAKI-1): 1.56 µM (inactive)
- GI50 (SF-295): 15.2 µM (inactive)
- GI50 (UACC-257): 1.61 µM (inactive)
- GI50 (MOLT-4): 0.08 µM (active)
- GI50 (Hs-578T): 3.9 µM (inactive)
- GI50 (A549): 2.39 µM (inactive)
- GI50 (NCI-H23): 2.9 µM (inactive)
- GI50 (HCC 2998): 1.31 µM (inactive)
- GI50 (EKVX): 2.49 µM (inactive)
- GI50 (SW-620): 1.76 µM (inactive)
- GI50 (A498): 11 µM (inactive)
- GI50 (COLO 205): 1.55 µM (inactive)
- GI50 (MDA-MB-435): 1.87 µM (inactive)
- GI50 (M14): 1.6 µM (inactive)
- GI50 (HCT-15): 1.6 µM
- GI50 (SNB-75): 2.66 µM (inactive)
- GI50 (DU-145): 1.76 µM (inactive)
- GI50 (SF-539): 5.02 µM (inactive)
- GI50 (MDA-MB-231): 1.78 µM (inactive)
- GI50 (HT-29): 1.81 µM (inactive)
- GI50 (SF-268): 2.7 µM (inactive)
- GI50 (SNB-19): 15.2 µM (inactive)
- GI50 (HOP-92): 1.71 µM (inactive)
- GI50 (NCI-H460): 1.72 µM (inactive)
- GI50 (HL-60): 0.183 µM (active)
- GI50 (T47D): 2.8 µM (inactive)
- GI50 (ACHN): 1.77 µM (inactive)
